# Measurements as given in PMC11239005, “Preclinical studies of RA475, a guanidine-substituted spirocyclic candidate RPN13/ADRM1 inhibitor for treatment of ovarian cancer” (PLOS ONE, 2024).
# Entries after “also recorded” stand apart in the source; their conditions may differ. Read-outs that look alike come from different tables or passages of the source.
# What was measured:
# [1] = system: PEO23; test: MTT cytotoxicity assay, PEO23; format: cell-based; details: PEO23, 72 h
# Protocol: (§1) All cell lines were obtained from the American Type Culture Collection (ATCC) and cultured in the specified medium supplemented with 10% fetal bovine serum, 100 IU/mL penicillin, and 100 μg/mL streptomycin at 37°C in a humidified 5% CO2/95% air incubator. Synthesis of new compounds is described in S1 File, and >95% purity of RA475, Up284 and its analogs were confirmed by NMR and MS. To assess drug cytotoxicity, cells were seeded at 2,500 cells/well (10,000 cells/well for MM lines) in 100 μL medium in 96-well plate as triplicates and after 24 h treated with compounds for a further 72 h. To assess cytotoxicity, the cells were incubated for 2 h at 37°C according to the manufacturer’s protocol with the Thiazolyl Blue Tetrazolium Bromide (20 μL/well of 5 mg/mL stock solution in water) (Sigma, M5655) and A570 measured using a Benchmark Plus microplate spectrophotometer (BIO-RAD). IC50 was estimated using Graphpad Prism 7 software.
# [2] = system: ID8VegF; test: MTT cytotoxicity assay, ID8VegF; format: cell-based; details: 72 h
# Protocol: as §1
# [3] = system: 4UbFL expressed in leg muscle; test: 4UbFL reporter in leg muscle of CD-1 mice; format: in vivo, mouse; details: for 4UbFL bioluminescence from leg muscle vs vehicle: single IP dose 40 mg/Kg, 4-96 h
# Protocol: A patch of CD1 mouse leg was shaved of hair and 10 μg 4Ub-FL plasmid in 20 μL of PBS was injected into the quadriceps femoralis muscle followed immediately by injection of the 2 Needle Array to 5 mm depth encompassing the injection site and square wave EP (ElectroSquarePorator 833, BTX-2 Needle array 5mm gap, Harvard apparatus) delivered as eight pulses at 106 V for 20 ms with 200 ms intervals. One day post-EP, mice were anesthetized with isoflurane, injected IP with luciferin (0.3 mg in 100 μL water) and optical imaging was performed to determine basal level luciferase expression. Images were acquired for 10 min with a Xenogen IVIS 200 (Caliper, Hopkinton, MA). Equally sized areas were analyzed using Living Image 2.20 software.
# Fig 3 Impact of RA475 on proteasome function. […] Actin was used as loading control. […] C) 4T1 and HCC1806 cells stably expressing 4UbFL were treated with compounds at indicated doses for 4 h and imaged by IVIS200 after the addition of luciferin substrate (50 μL, 7mg/mL in PBS). D) Sub-confluent cultures of ES2 cells stably expressing 4UbFL were seeded at 10,000 cells/well in 96-well microtiter plates. At 18 h post transfection, cells were treated with compounds or vehicle (DMSO) at the doses indicated. After a 4 h incubation, the cells were lysed and the luciferase activity in each cell lysate was determined with a luciferase assay kit (Promega) according to the manufacturer’s instructions. Bioluminescence was measured by using a luminometer (Glomax Multidetection system, Promega) E) A patch was shaved of hair on one leg of CD-1 mice, and 10 μg 4UbFL plasmid in 20 μL of PBS was injected into the quadriceps femoralis muscle followed immediately by injection of the 2 Needle Array to 5 mm depth encompassing the injection site and square wave electroporation (ElectroSquarePorator 833, BTX-2 Needle array 5mm gap, Harvard apparatus) delivered as eight pulses at 106V for 20 ms with 200 ms intervals. One day post electroporation, mice were anesthetized with isoflurane, injected IP with luciferin (0.3 mg in 100 μL water) and optical imaging was performed to determine basal level luciferase expression. Images were acquired for 10 min with a Xenogen IVIS 200 (Caliper, Hopkinton, MA). Equally sized areas were analyzed using Living Image 2.20 software. Mice were imaged weekly during treatment. Mice were randomized into three groups (n = 5) and treated IP once with Vehicle (25% (w/v) β-Hydroxypropylcyclodextrin in water, Sigma Aldrich) alone, RA475 (40 mg/Kg) or Up284 (40 mg/Kg) and mice were imaged again at 4 h, 24 h, 48 h, 72 h and 96 h later. F) Same as in E but RA475 (40mg/Kg) and ixazomib (10mg/Kg, recommended dose) were delivered orally. Thick line indicates median measurements. […]
# [4] = system: 4T1; test: MTT cytotoxicity assay, 4T1; format: cell-based; details: Mus musculus, 4T1, 72 h
# Protocol: as §1
# [5] = system: HCC1806; test: MTT cytotoxicity assay, HCC1806; format: cell-based; details: Homo sapiens, HCC1806, 72 h
# Protocol: as §1
# [6] = system: ES2; test: MTT cytotoxicity assay, ES2; format: cell-based; details: Homo sapiens, ES-2, ES2, 72 h
# Protocol: as §1
# [7] = system: A549; test: MTT cytotoxicity assay, A549; format: cell-based; details: Homo sapiens, A549, 72 h
# Protocol: as §1
# [8] = GSH reactivity assay; format: physicochemical; details: for Average Area Ratio Normalized: with GSH divided by without GSH; for remaining at 1.5 h, 20 μM: pH 7.4
# Protocol: Test compounds (20 μM, final organic solvent concentration 10%) were incubated with 1 mM GSH in phosphate buffer (100 mM), pH 7.4 at 37°C, shaking at 300 rpm. In the control reactions (“without GSH”), the GSH was substituted with phosphate buffer. Five time points over 1.5 h were analyzed (0, 0.33, 0.66, 1 and 1.5 h). The reactions were stopped by adding 50 μL aliquots of the reaction mixture to 9 volumes of methanol: water: formic acid (10:10:0.04) with internal standard (IS). Samples were analyzed using HPLC system coupled with a tandem mass spectrometer. Average (triplicate) area ratios were calculated. GSH reactivity was calculated taking into account the possible instability of the compound during incubation. All calculations were performed using normalized data obtained by dividing the average area ratio of the test compound incubated with GSH by the average area ratio of the test compound incubated without GSH. Natural logarithms of the results were fitted to linear regression, and half-life (t1/2) was calculated as: t1/2=ln2/-slope
# [9] = 0 h, 1 mM GSH, 20 μM compound, pH 7.4, 37°C
# [10] = 1 mM GSH in phosphate buffer, 1.5 h, read-out: % Remaining with GSH, normalized
# [11] = 1 mM GSH in phosphate buffer, 1 mM GSH, pH 7.4, 37°C, read-out: t1/2 with GSH, normalized (converted)
# [12] = phosphate buffer, pH 7.4, 37°C, read-out: t1/2 w/o GSH
# [13] = phosphate buffer, 1.5 h, read-out: % Remaining w/o GSH
SMILES,IC50 [1] [µM],IC50 [2] [µM],4UbFL bioluminescence from leg muscle vs vehicle [3],IC50 [4] [µM],IC50 [5] [µM],IC50 [6] [µM],IC50 [7] [µM],time within which compound reacted with GSH [8] [min],"Average Area Ratio with GSH [8, 9]","Average Area Ratio without GSH ([8]; 0 h, phosphate buffer)",Average Area Ratio Normalized ([8]; 0 h),"remaining at 1.5 h, 20 μM [8, 10] [%]","half-life at 20 μM [8, 11] [min]","Average Area Ratio with GSH ([8]; 0.33 h, 1 mM GSH)","Average Area Ratio without GSH ([8]; 0.33 h, phosphate buffer)",Average Area Ratio Normalized ([8]; 0.33 h),"Average Area Ratio with GSH ([8]; 0.66 h, 1 mM GSH)","Average Area Ratio without GSH ([8]; 0.66 h, phosphate buffer)",Average Area Ratio Normalized ([8]; 0.66 h),"Average Area Ratio with GSH ([8]; 1 h, 1 mM GSH)",further results
"N#Cc1ccc(/C=C2/C(=O)/C(=C/c3ccc(C#N)cc3)C23CCNCC3)cc1 [Up284, reference compound]",0.112,0.2,much weaker effect,0.12,0.14,0.125,0.09,≤ 30,1.00E+02,1.00E+02,8.68E+01,10,12.2,1.76E+01,1.03E+02,1.48E+01,1.18E+01,1.13E+02,9.11E+00,1.20E+01,"Average Area Ratio without GSH ([8]; 1 h, phosphate buffer): 1.18E+02; Average Area Ratio Normalized ([8]; 1 h): 8.78E+00; Average Area Ratio with GSH ([8]; 1.5 h, 1 mM GSH): 1.30E+01; Average Area Ratio without GSH ([8]; 1.5 h, phosphate buffer): 1.18E+02; Average Area Ratio Normalized ([8]; 1.5 h): 9.58E+00; half-life at 20 μM [8, 12]: > 360 min; remaining at 1.5 h, 20 μM [8, 13]: 118%"
"Cl.Cl.N#Cc1ccc(/C=C2/C(=O)/C(=C/c3ccc(C#N)cc3)C23CCN(C(=N)N)CC3)cc1 [RA475, 1,3-bis((E)-4-cyanobenzylidene)-2-oxo-7-azaspiro[3.5]nonane-7-carboximidamide dihydrochloride]",0.297,1.82,rapidly increased the bioluminescence,0.261,0.113,0.16,0.219,≤ 30,1.00E+02,1.00E+02,9.10E+01,8,12.2,2.00E+01,9.44E+01,1.93E+01,1.02E+01,9.60E+01,9.62E+00,8.18E+00,"4UbFL stabilization, fold over baseline ([3]; 40 mg/Kg IP): > 20 fold; stabilization of 4UbFL in muscle ([3]; single oral (PO) 40 mg/Kg dose, 40 mg/kg): much lower than seen for the single IV dose; also recorded: minimal stabilization; Average Area Ratio without GSH ([8]; 1 h, phosphate buffer): 9.22E+01; Average Area Ratio Normalized ([8]; 1 h): 8.07E+00; Average Area Ratio with GSH ([8]; 1.5 h, 1 mM GSH): 7.92E+00; Average Area Ratio without GSH ([8]; 1.5 h, phosphate buffer): 9.03E+01; Average Area Ratio Normalized ([8]; 1.5 h): 7.98E+00; half-life at 20 μM [8, 12]: > 360 min; remaining at 1.5 h, 20 μM [8, 13]: 90%"
